Measurements: patent US9669003B2, “Use of flavone and flavanone derivatives in preparation of sedative and hypnotic drugs” (priority 2012, dated 2017)
Marks after values point to notes of the source that are not given here.

Tests used:
Assay type in all cases: in vivo
Kunming mice [1] = experiment: Influence on autonomic activity of normal mice (ZIL-2 mice autonomic activity meter, counts within 10 min); conditions: intragastric, x ± s, n = 10; for Times of activities in 1 h after drug administration/10 min: 1 h after administration; for Times of activities in 2 h after drug administration/10 min: 2 h after administration; for Times of activities in 24 h after drug administration/10 min: 24 h after administration
Text: (§1) 1.1 Animals for experiments: Kunming mice, weighting 18.9˜22.2 g for females, and 20.2˜23.0 g for males, licensed under SCXK-(Ji) 2007-0003, and provided by The experimental animal centre, Jilin University.
(§2) 1.2 Chemicals for experiments: The flavone derivatives provided in Examples 1-41 and the flavanone derivatives provided in Examples 42-71 are all formulated with 0.5% sodium carboxymethyl cellulose as solutions with required concentrations.
(§3) 1.3 Grouping of animals: 6420 animals are employed in the entire experiments and 2140 of the animals are randomly divided into 214 groups by gender, and the […] include: control group, low dosage group for each experimental drugs (25 mg/kg), medium dosage group for each experimental drugs (50 mg/kg), and high dosage group for each experimental drugs (100 mg/kg). Each group has 10 animals and either female or male constitutes half of the group. The groups are used in behavior observation and voluntary action observation. The other 4280 animals are randomly divided into 214 groups by gender respectively (the grouping way is the same with that described above). Each group has 20 animals and either female or male constitutes half of the group. In each group, 10 animals are used in hypnosis experimentations with pentobarbital sodium doses below the threshold, and the other 10 animals are used hypnosis experimentations with pentobarbital sodium doses at the threshold.
1.4 Experimental instrument and agents: ZIL-2 mice autonomic activity meter, production of Institute of Materia Medica of Chinese Academy of Medical Sciences; pentobarbital sodium, Lot: 100808, 25 g/bottle, Beijing Chemical Reagent Company equipment imported from Germany.
1.5.2 Influence on Autonomic Activity of Normal Mice
After observing the general behavior, in 1 h, 2 h and 24 h after drug administration, respectively, ZIL-2 mice autonomic activity meter is put respectively. Number of autonomic activities of each group of mice is measured within 10 min. Results among groups are compared.
(§4) Number of autonomic activities is detected by leneve Test for homogeneity of variance. If the homogeneity of variance is good (P>0.05), statistical analysis is performed with ANOVA. If ANOVA have statistical significance (P≦0.05), Dunnett's test for multiple comparisons analysis is performed. Number of animals of sleeping mice is applied of ANOVA. Incidence rate of animal asleep is applied of χ2 test. Sleep latency and sleep duration are recorded in min, averaged by group, represented by standard deviation, and undergo statistical analysis using ANOVA.

Kunming mice [2] = experiment: Influence on hypnosis effect with pentobarbital sodium doses below the threshold (25 mg/kg i.p.); conditions: pentobarbital sodium 25 mg/kg i.p. 60 min later, sleep observed in 30 min, n = 10
Text: as §1, §2, §3
1.5.3 Influence on Hypnosis Effect with Mice Pentobarbital Sodium Doses Below the Threshold
(§5) The drug is intragastric administered in mice for single time, 2 animals of each group are given drug per round with the dosing interval of 40 min (±5 min). According to the administration round, in 60 min (±5 min) of each round after the drug administration, the animals were intraperitoneally injected 0.3% sodium pentobarbital 25 mg/kg, respectively. Sleep condition of the animals were observed within 30 min (under sleep determination standard of loss of righting reflex more than 1 min). After animals undergo loss of righting reflex, number of the animals is recorded, to calculate sleep percentage.
as §4

Kunming mice [3] = experiment: Influence on hypnosis effect with pentobarbital sodium doses at the threshold (50 mg/kg i.p.); conditions: pentobarbital sodium 50 mg/kg i.p. 60 min later, x ± s, n = 10
Text: as §1, §2, §3
1.5.4 Influence on Hypnosis Effect with Mice Pentobarbital Sodium Doses at the Threshold
as §5, with “50” for “25”, “Time to fall asleep (sleep latency) and sleep duration” for “Sleep condition”, “recorded” for “observed”, “under” for “30 min (under”, “min.” for “min). After animals undergo loss of righting reflex, number of the animals is recorded, to calculate sleep percentage.”
as §4

[4] = test drug 25 mg/kg intragastric single dose
[5] = test drug 50 mg/kg intragastric single dose
[6] = test drug 100 mg/kg intragastric single dose
[7] = 25 mg/kg intragastric single dose
[8] = 50 mg/kg intragastric single dose
[9] = 100 mg/kg intragastric single dose

Compound: CC=Cc1c(C(=O)O)cc2c(=O)cc(-c3ccc(F)c(C#N)c3)oc2c1C(=O)O [Example 34]
- Times of activities in 1 h after drug administration/10 min (Kunming mice [1]; 25 mg/kg): 292.2 ± 49.3 /10 min
- Times of activities in 2 h after drug administration/10 min (Kunming mice [1]; 25 mg/kg): 276.2 ± 43.8 /10 min
- Times of activities in 24 h after drug administration/10 min (Kunming mice [1]; 25 mg/kg): 313.2 ± 75.4 /10 min
- Times of activities in 1 h after drug administration/10 min (Kunming mice [1]; 50 mg/kg): 249.4 ± 62.4 /10 min
- Times of activities in 2 h after drug administration/10 min (Kunming mice [1]; 50 mg/kg): 263.3 ± 59.3 /10 min
- Times of activities in 24 h after drug administration/10 min (Kunming mice [1]; 50 mg/kg): 334.7 ± 72.3 /10 min
- Times of activities in 1 h after drug administration/10 min (Kunming mice [1]; 100 mg/kg): 127.8 ± 28.6 /10 min
- Times of activities in 2 h after drug administration/10 min (Kunming mice [1]; 100 mg/kg): 243.9 ± 40.5 /10 min
- Times of activities in 24 h after drug administration/10 min (Kunming mice [1]; 100 mg/kg): 298.7 ± 81.8 /10 min
- Number of sleeping animals (Kunming mice [2]; [4]): 2
- rate of sleeping (%) (Kunming mice [2]; [4]): 20%
- Number of sleeping animals (Kunming mice [2]; [5]): 4
- rate of sleeping (%) (Kunming mice [2]; [5]): 40* %
- Number of sleeping animals (Kunming mice [2]; [6]): 6
- rate of sleeping (%) (Kunming mice [2]; [6]): 60** %
- duration of sleep (Kunming mice [3]; [7]): 37.89 ± 15.21 min
- time to sleep (Kunming mice [3]; [7]): 4.39 ± 1.61 min
- duration of sleep (Kunming mice [3]; [8]): 44.75 ± 21.85 min
- time to sleep (Kunming mice [3]; [8]): 3.87 ± 1.42 min
- duration of sleep (Kunming mice [3]; [9]): 54.77 ± 19.67 min
- time to sleep (Kunming mice [3]; [9]): 3.45 ± 1.38 min

Compound: COc1ccc(C2CC(=O)c3cc(OC)c(OC)c(OC)c3O2)cc1OC (stereo not drawn) [Example 45, 6,7,8,3′,4′-penta methoxyl-flavanone]
- Times of activities in 1 h after drug administration/10 min (Kunming mice [1]; 25 mg/kg): 235.6 ± 44.5 /10 min
- Times of activities in 2 h after drug administration/10 min (Kunming mice [1]; 25 mg/kg): 223.2 ± 41.4 /10 min
- Times of activities in 24 h after drug administration/10 min (Kunming mice [1]; 25 mg/kg): 299.2 ± 61.3 /10 min
- Times of activities in 1 h after drug administration/10 min (Kunming mice [1]; 50 mg/kg): 136.6 ± 40.5 /10 min
- Times of activities in 2 h after drug administration/10 min (Kunming mice [1]; 50 mg/kg): 123.3 ± 47.6 /10 min
- Times of activities in 24 h after drug administration/10 min (Kunming mice [1]; 50 mg/kg): 291.5 ± 60.4 /10 min
- Times of activities in 1 h after drug administration/10 min (Kunming mice [1]; 100 mg/kg): 112.5 ± 35.4 /10 min
- Times of activities in 2 h after drug administration/10 min (Kunming mice [1]; 100 mg/kg): 105.6 ± 48.5 /10 min
- Times of activities in 24 h after drug administration/10 min (Kunming mice [1]; 100 mg/kg): 288.8 ± 69.5 /10 min
- Number of sleeping animals (Kunming mice [2]; [4]): 5
- rate of sleeping (%) (Kunming mice [2]; [4]): 50** %
- Number of sleeping animals (Kunming mice [2]; [5]): 6
- rate of sleeping (%) (Kunming mice [2]; [5]): 60** %
- Number of sleeping animals (Kunming mice [2]; [6]): 10
- rate of sleeping (%) (Kunming mice [2]; [6]): 100*** %
- duration of sleep (Kunming mice [3]; [7]): 59.67 ± 19.87 min
- time to sleep (Kunming mice [3]; [7]): 4.19 ± 1.78 min
- duration of sleep (Kunming mice [3]; [8]): 66.42 ± 28.90 min
- time to sleep (Kunming mice [3]; [8]): 3.26 ± 1.24 min
- duration of sleep (Kunming mice [3]; [9]): 90.03 ± 23.72 min
- time to sleep (Kunming mice [3]; [9]): 2.17 ± 1.14 min

Compound: COc1cc2c(c(OC)c1OC)OC(c1cc(OC)c(OC)c(OC)c1OC)CC2=O (stereo not drawn) [Example 67, 6,7,8,3′,4′,5′,6′-hepta methoxyl-flavanone]
- Times of activities in 1 h after drug administration/10 min (Kunming mice [1]; 25 mg/kg): 287.7 ± 45.4 /10 min
- Times of activities in 2 h after drug administration/10 min (Kunming mice [1]; 25 mg/kg): 312.5 ± 54.8 /10 min
- Times of activities in 24 h after drug administration/10 min (Kunming mice [1]; 25 mg/kg): 307.4 ± 77.0 /10 min
- Times of activities in 1 h after drug administration/10 min (Kunming mice [1]; 50 mg/kg): 247.2 ± 44.5 /10 min
- Times of activities in 2 h after drug administration/10 min (Kunming mice [1]; 50 mg/kg): 251.3 ± 38.8 /10 min
- Times of activities in 24 h after drug administration/10 min (Kunming mice [1]; 50 mg/kg): 314.6 ± 94.9 /10 min
- Times of activities in 1 h after drug administration/10 min (Kunming mice [1]; 100 mg/kg): 223.4 ± 46.5 /10 min
- Times of activities in 2 h after drug administration/10 min (Kunming mice [1]; 100 mg/kg): 243.7 ± 40.6 /10 min
- Times of activities in 24 h after drug administration/10 min (Kunming mice [1]; 100 mg/kg): 301.9 ± 88.6 /10 min
- Number of sleeping animals (Kunming mice [2]; [4]): 5
- rate of sleeping (%) (Kunming mice [2]; [4]): 50** %
- Number of sleeping animals (Kunming mice [2]; [5]): 6
- rate of sleeping (%) (Kunming mice [2]; [5]): 60** %
- Number of sleeping animals (Kunming mice [2]; [6]): 7
- rate of sleeping (%) (Kunming mice [2]; [6]): 70** %
- duration of sleep (Kunming mice [3]; [7]): 80.69 ± 20.87 min
- time to sleep (Kunming mice [3]; [7]): 4.34 ± 1.26 min
- duration of sleep (Kunming mice [3]; [8]): 48.12 ± 22.48 min
- time to sleep (Kunming mice [3]; [8]): 4.09 ± 1.45 min
- duration of sleep (Kunming mice [3]; [9]): 54.43 ± 19.81 min
- time to sleep (Kunming mice [3]; [9]): 3.87 ± 2.98 min
